Source: US20250221957A1, “PS[…] AND THEIR USE FOR TREATING […] AND NE[…] DISORDERS” (Transcend Therapeutics, Inc., priority 2021, published 2025)
pKi: −log10 of the molar value. Read-outs that look alike come from different tables or passages of the source.

Assays:
Sprague Dawley rats [1] = assay: Forced Swim Test (FST); type: in vivo, rat; conditions: for reduction in immobility (magnitude of the effect): single dose 30 min before testing
Description: The Forced Swim Test (FST) is a classic, and the most used preclinical behavioral assay to screen compounds with antidepressant-like activity and has high predictive and face validity (Porsolt et al. (1977) Nature 266:730; Borsini and Meli (1988) Psychopharmacology 94:147). The premise of the FST is that when rats are placed into a cylinder filled with water, they will initially try to escape, but over time will become immobile. This increased immobility reflects behavioral despair, modeling a depressive-like state.
Animals: Male Sprague Dawley rats (Charles River Laboratories) weighing 180-200 g on arrival, were used for this study which took place at Melior Discovery (Exton, PA). Rats acclimated to their home cages for at least one week before testing, were maintained in a controlled environment on a 12 h light/dark cycle, with no more than 2 rats per cage. Animals received ad libitum access to food and water and were assigned randomly to treatment groups. Animal use and procedures were in accordance with established protocols approved by the IACUC committee, Melior Standard Operation Procedures (SOP), and Transcend Therapeutics.
Forced Swim Test (FST): In the FST trial, rats were be placed in a circular plexiglass container filled with water, with no means of escape. Water temperature was maintained at 22-25° C. and changed for every animal. After an acclimation period, rats were timed for inactivity (failure to struggle), activity, swim time and climbing time. Day 1 consisted of a 15 min acclimation trial, and Day 2 (24 h later) consisted of the 5 min test. A time sampling procedure was employed where animals were observed every 5 sec and scored for immobility, swimming, or climbing. Fluoxetine (10 mg/kg, IP, Sigma Aldrich) or 0.9% sterile saline vehicle (vehicle 3× group) were administered 23.5, 5, and 1 h before testing in the FST. […] The experimenter was blinded to treatment.
Statistical Analysis: Data for each parameter of the test (immobility, swimming, or climbing) is expressed as the mean±SEM. Differences between groups were determined by one-way ANOVA and post-hoc Tukey's test with a p-value of less than 0.05 indicating statistically significant differences.
Forced Swim Test: In the FST trial, rats were be placed in a circular plexiglass container filled with water, with no means of escape. Water temperature was maintained at 22-25° C. and changed for every animal. After an acclimation period, rats were timed for inactivity (failure to struggle), activity, swim time and climbing time. Day 1 consisted of a 15 min acclimation trial, and Day 2 (24 h later) consisted of the 5 min test. A time sampling procedure was employed where animals were observed every 5 sec and scored for immobility, swimming, or climbing. Fluoxetine (10 mg/kg, IP, Sigma Aldrich) or 0.9% sterile saline vehicle (vehicle 3× group) were administered 23.5, 5, and 1 h before testing in the FST. 2C-B (2.5, 10, or 20 mg/kg, IP, Cayman Chemical) or 0.9% saline vehicle (vehicle 1× group) were administered 30 min prior to FST testing. The experimenter was blinded to treatment.
Drug Treatment: Fluoxetine (10 mg/kg, IP, Sigma Aldrich) or 0.9% sterile saline vehicle were administered 23.5, 5, and 1 h before testing in the FST. […] Control animals received fluoxetine alone, methylone alone, or saline vehicle.
Forced Swim Test: In the FST trial, rats were be placed in a circular plexiglass container filled with water, with no means of escape. Water temperature was maintained at 22-25° C. and changed for every animal. After an acclimation period, rats were timed for inactivity (failure to struggle), activity, swim time and climbing time. The experimenter and scorer were blind to treatment group. Day 1 consisted of a 15 min acclimation trial, and Day 2 (24 h later) consisted of the 5 min test. A time sampling procedure was employed where animals were observed every 5 sec and scored for immobility, swimming, or climbing. […]

drug users / humans = conditions: cited from earlier work
mice [2] = assay: Fear extinction paradigm, mouse model of PTSD; type: in vivo; conditions: MBDB 5 mg/kg IP, day 2
Description: (FIG. 9A) Schematic of experimental design. A single CS-US (tone-shock) pairing on day 1 was followed by 6 CS presentations in a novel context (context B). […] On day 3, the time spent freezing to the CS was quantified. […] (FIG. 9C) No locomotor changes were observed on day 3 (t(26)=1.073, p>0.05). Data are mean +/− SEM.
FIGS. 10A-10B: MBDB improves fear extinction in a mouse model of PTSD. A single CS-US (tone-shock) pairing on day 1 was followed by 6 conditioned stimulus (CS) presentations in a novel context (context B). MBDB or saline vehicle was injected 30 min prior to extinction training on day 2. The time spent freezing to the CS was quantified on […]. […] Data are mean +/− SEM. N=10 for MBDB group (5 mg/kg, IP) and N=16 for saline control group. **p<0.01 vs. vehicle control group.
Effective PTSD treatments facilitate the disassociation between a traumatic memory and the patient's fear response, making cues for the traumatic memory evoke less of a fear response. This is modeled in the mouse fear extinction paradigm (see FIG. 9A) which takes place over 3 days. On day 1 (fear conditioning), mice are trained to acquire a “traumatic memory,” namely associating the conditioned stimulus (CS, tone) to the unconditioned stimulus (US, foot shock). On day 2 (extinction training), they are trained to forget the traumatic memory association by presenting the CS 6 times (with no US) in a novel environment. On day 3 (extinction recall), the mice are “asked” if that tone (CS) still elicits a fearful response, as measured by the time spent freezing when the tone is presented. Less time freezing means better extinction recall. Drugs that improve extinction recall reduce freezing time on day 3, and, therefore, show potential as a PTSD treatment.

[3] = test system: serotonergic terminals in the cortex and hippocampus; conditions: 25 mg/kg IP every 12 hours for 4 days; 2 weeks post-treatment; cited from earlier work
Sprague Dawley rats [4] = conditions: cited from earlier work
[5] = target: T1, Human serotonin 5HT2B receptor (Homo sapiens, UniProt P41595); assay: Competitive radioligand binding to 5HT2B receptor membrane preparations; conditions: ratio of Ki values
T1 construct: host or cells: 5HT2B receptor expressing membranes
Experimental: Human serotonin 5HT2B receptor membrane preparations were divided into aliquots. On the day of the assay, membranes were diluted at 1:200 in incubation buffer. […] To each well was added 150 μL membrane preparation, 50 μL test compound, non-specific compound, or buffer alone, as well as 50 μL radioligand. The plate was incubated at 35° C. for 90 minutes with gentle agitation. […] For each concentration of drug, non-specific binding was subtracted from total binding to give specific binding. […] Ki was subsequently calculated using the ChengPrusoff equation.

[6] = target: T1, Human serotonin 5HT2B receptor; conditions: literature values; read-out: reported Ki; cited from earlier work
[7] = depending on the animal model used and dosing conditions; cited from earlier work
mice [8] = conditions: MDMA 7.5 mg/kg 30 minutes prior to extinction training (Young 2015); cited from earlier work
[9] = 13 of 77 deaths, meta-analysis; cited from earlier work

T1 sequence (P41595 whole entry): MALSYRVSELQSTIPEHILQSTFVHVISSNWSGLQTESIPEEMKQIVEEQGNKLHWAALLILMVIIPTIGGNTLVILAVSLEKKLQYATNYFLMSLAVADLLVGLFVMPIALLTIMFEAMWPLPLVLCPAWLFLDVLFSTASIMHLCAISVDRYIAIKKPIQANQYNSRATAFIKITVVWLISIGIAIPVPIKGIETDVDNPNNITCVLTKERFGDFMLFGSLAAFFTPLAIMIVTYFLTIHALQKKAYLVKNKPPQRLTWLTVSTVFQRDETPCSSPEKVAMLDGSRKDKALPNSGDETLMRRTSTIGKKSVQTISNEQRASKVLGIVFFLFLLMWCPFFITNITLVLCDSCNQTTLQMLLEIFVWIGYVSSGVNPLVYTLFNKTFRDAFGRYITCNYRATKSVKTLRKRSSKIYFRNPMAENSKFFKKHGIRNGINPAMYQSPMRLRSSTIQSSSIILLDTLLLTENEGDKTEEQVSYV

CCC(Cc1ccc2c(c1)OCO2)NC (racemic) [MBDB, N-methyl-1-(1,3-benzodioxol-5-yl)-2-aminobutane]
climbing (Sprague Dawley rats [1]; MBDB IP 30 min before testing): significantly reduced only at the highest dose
swimming (Sprague Dawley rats [1]; MBDB IP 30 min before testing): robustly increased at all doses tested
immobility (Sprague Dawley rats [1]; MBDB IP 30 min before testing, all doses tested (15-30 mg/kg)): significantly reduced immobility
adverse effects (drug users / humans; self-administered MBDB under supervision, 100 to 300 mg): no serious adverse effects
extinction acquisition on the first trial of extinction training (mice [2]): improved extinction acquisition
locomotor activity (mice [2]): small, but significant increase
serotonergic terminals destroyed in the cortex and hippocampus [3]: 55-60%

COc1cc(CCN)c(OC)cc1Br [2C-B, 4-Bromo-2,5-dimethoxyphenethylamine]
climbing (Sprague Dawley rats [1]; 2C-B 2.5, 10, 20 mg/kg IP): significantly decreased only in the high-dose group
reduction in immobility (magnitude of the effect) (Sprague Dawley rats [1]; 2C-B high-dose (20 mg/kg IP)): 53%
reduction in immobility (magnitude of the effect) (Sprague Dawley rats [1]; 2C-B mid-dose (10 mg/kg IP)): 50%
swimming (Sprague Dawley rats [1]; single dose of 2C-B 30 minutes before testing): significant increase in swimming
adverse effects (drug users / humans; self-administered 2C-B, 10 to 20 mg, experienced drug users): no serious adverse effects

CCN(CC)C(=O)[C@@H]1C=C2c3cccc4[nH]cc(c34)C[C@H]2N(C)C1 [LSD, lysergic acid-N,N-diethylamide]
reduction in immobility in the FST, previous reports (Sprague Dawley rats [4]; literature (Hibicke 2020; Yang 2013; Tizabi 2012)): 38%

CC(N)Cc1ccc2c(c1)OCO2 (centres unmarked) [MDA]
greater affinity for the 5HT2B receptor compared with methylone [5]: 37 times
pKi [6]: 7.00

CNC(C)Cc1ccc2c(c1)OCO2 (centres unmarked) [MDMA, 3,4-Methylenedioxymethamphetamine]
greater affinity for the 5HT2B receptor compared with methylone [5]: 7.5 times
reduction in immobility, reported (Sprague Dawley rats [4]; MDMA 5 mg/kg, Flinders Sensitive Line rats (Majumder 2011)): 45%
reduction in immobility, reported (Sprague Dawley rats [4]; MDMA 5 mg/kg, Sprague Dawley rats (Majumder 2011)): 45%
reduction in immobility, reported (Sprague Dawley rats [4]; MDMA 10 mg/kg, Flinders Sensitive Line rats (Majumder 2011)): 93%
reduction in immobility, reported (Sprague Dawley rats [4]; MDMA 10 mg/kg, Sprague Dawley rats (Majumder 2011)): 78%
half-life [7]: 5 to 7 h
reduced freezing compared to saline injected controls (extinction recall) (mice [8]): 35%
blood concentration in deaths attributable to MDMA alone [9]: 478 to 53900 ng/mL

CNCCC(Oc1ccc(C(F)(F)F)cc1)c1ccccc1 (centres unmarked) [fluoxetine, reference compound]
swimming behavior (Sprague Dawley rats [1]; Example 8): significantly increased swimming behavior
reduction in immobility (Sprague Dawley rats [1]; fluoxetine 10 mg/kg IP at 23.5, 5 and 1 h before testing (Examples 6 and 7)): 56%
reduced immobility compared to vehicle (Sprague Dawley rats [1]; fluoxetine alone, 10 mg/kg IP x3 (Example 8)): 60%
